According to PubChem BioAssay (NCI):
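A five-concentration, 48-hour dose response in 96-well plates underlies each endpoint, interpolated linearly between surrounding concentrations. The concentration for full growth arrest is given as TGI.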

Experiments:
Assay in all cases: NCI tumour cell line growth inhibition, 48 h
T-47D breast = test system: T-47D breast
HL-60(TB) leukemia = test system: HL-60(TB) leukemia
TK-10 renal = test system: TK-10 renal
KM12 colon = test system: KM12 colon
CAKI-1 renal = test system: CAKI-1 renal
OVCAR-4 ovarian = test system: OVCAR-4 ovarian
MALME-3M melanoma = test system: MALME-3M melanoma
HCT-116 colon = test system: HCT-116 colon
A498 renal = test system: A498 renal
HT29 colon = test system: HT29 colon
SF-295 CNS = test system: SF-295 CNS
DU-145 prostate = test system: DU-145 prostate
SNB-19 CNS = test system: SNB-19 CNS
OVCAR-8 ovarian = test system: OVCAR-8 ovarian
MDA-MB-231 breast = test system: MDA-MB-231 breast
NCI-H522 lung = test system: NCI-H522 lung
OVCAR-3 ovarian = test system: OVCAR-3 ovarian
IGROV1 ovarian = test system: IGROV1 ovarian
SW-620 colon = test system: SW-620 colon
OVCAR-5 ovarian = test system: OVCAR-5 ovarian
SK-MEL-28 melanoma = test system: SK-MEL-28 melanoma
A549 NSCLC = test system: A549 NSCLC
HS 578T breast = test system: HS 578T breast
SF-268 CNS = test system: SF-268 CNS
NCI-H226 lung = test system: NCI-H226 lung
SF-539 CNS = test system: SF-539 CNS
UACC-257 melanoma = test system: UACC-257 melanoma
MCF7 breast = test system: MCF7 breast
HCC-2998 colon = test system: HCC-2998 colon
BT-549 breast = test system: BT-549 breast
SK-MEL-5 melanoma = test system: SK-MEL-5 melanoma
EKVX NSCLC = test system: EKVX NSCLC
SN12C renal = test system: SN12C renal
M14 melanoma = test system: M14 melanoma
PC-3 prostate = test system: PC-3 prostate
U251 CNS = test system: U251 CNS
UO-31 renal = test system: UO-31 renal
LOX IMVI melanoma = test system: LOX IMVI melanoma
K-562 leukemia = test system: K-562 leukemia
786-0 renal = test system: 786-0 renal
NCI-H460 lung = test system: NCI-H460 lung
NCI/ADR-RES ovarian = test system: NCI/ADR-RES ovarian
HCT-15 colon = test system: HCT-15 colon
SK-MEL-2 melanoma = test system: SK-MEL-2 melanoma
COLO 205 colon = test system: COLO 205 colon
MDA-MB-435 = test system: MDA-MB-435
NCI-H23 lung = test system: NCI-H23 lung
HOP-92 NSCLC = test system: HOP-92 NSCLC
ACHN renal = test system: ACHN renal
MDA-N = test system: MDA-N
RPMI-8226 leukemia = test system: RPMI-8226 leukemia
UACC-62 melanoma = test system: UACC-62 melanoma
SK-OV-3 ovarian = test system: SK-OV-3 ovarian
SNB-75 CNS = test system: SNB-75 CNS
RXF 393 renal = test system: RXF 393 renal
MOLT-4 leukemia = test system: MOLT-4 leukemia
CCRF-CEM leukemia = test system: CCRF-CEM leukemia
HOP-62 NSCLC = test system: HOP-62 NSCLC

## O=c1[nH]nc(Cc2ccc([N+](=O)[O-])cc2)n1CCO
T-47D breast
  TGI: > 100 µM
HL-60(TB) leukemia
  TGI: > 100 µM
TK-10 renal
  TGI: > 100 µM
KM12 colon
  TGI: > 100 µM
CAKI-1 renal
  TGI: > 100 µM
OVCAR-4 ovarian
  TGI: > 100 µM
MALME-3M melanoma
  TGI: > 100 µM
HCT-116 colon
  TGI: > 100 µM
A498 renal
  TGI: > 100 µM
HT29 colon
  TGI: > 100 µM
SF-295 CNS
  TGI: > 100 µM
DU-145 prostate
  TGI: > 100 µM
SNB-19 CNS
  TGI: > 100 µM
OVCAR-8 ovarian
  TGI: > 100 µM
MDA-MB-231 breast
  TGI: > 100 µM
NCI-H522 lung
  TGI: > 100 µM
OVCAR-3 ovarian
  TGI: > 100 µM
IGROV1 ovarian
  TGI: > 100 µM
SW-620 colon
  TGI: > 100 µM
OVCAR-5 ovarian
  TGI: > 100 µM
SK-MEL-28 melanoma
  TGI: > 100 µM
A549 NSCLC
  TGI: > 100 µM
HS 578T breast
  TGI: > 100 µM
SF-268 CNS
  TGI: > 100 µM
NCI-H226 lung
  TGI: > 100 µM
SF-539 CNS
  TGI: > 100 µM
UACC-257 melanoma
  TGI: > 100 µM
MCF7 breast
  TGI: > 100 µM
HCC-2998 colon
  TGI: > 100 µM
BT-549 breast
  TGI: > 100 µM
SK-MEL-5 melanoma
  TGI: > 100 µM
EKVX NSCLC
  TGI: > 100 µM
SN12C renal
  TGI: > 100 µM
M14 melanoma
  TGI: > 100 µM
PC-3 prostate
  TGI: > 100 µM
U251 CNS
  TGI: > 100 µM
UO-31 renal
  TGI: > 100 µM
LOX IMVI melanoma
  TGI: > 100 µM
K-562 leukemia
  TGI: > 100 µM
786-0 renal
  TGI: > 100 µM
NCI-H460 lung
  TGI: > 100 µM
NCI/ADR-RES ovarian
  TGI: > 100 µM
HCT-15 colon
  TGI: > 100 µM
SK-MEL-2 melanoma
  TGI: > 100 µM
COLO 205 colon
  TGI: > 100 µM
MDA-MB-435
  TGI: > 100 µM
NCI-H23 lung
  TGI: > 100 µM
HOP-92 NSCLC
  TGI: > 100 µM
ACHN renal
  TGI: > 100 µM
MDA-N
  TGI: > 100 µM
RPMI-8226 leukemia
  TGI: > 100 µM
UACC-62 melanoma
  TGI: > 100 µM
SK-OV-3 ovarian
  TGI: > 100 µM

## OCC1OC(n2cnc3c(Cl)nc(Nc4ccccc4)nc32)CC1O (centres undefined)
T-47D breast
  TGI: > 100 µM
TK-10 renal
  TGI: > 100 µM
KM12 colon
  TGI: > 100 µM
CAKI-1 renal
  TGI: 3.4 µM
OVCAR-4 ovarian
  TGI: > 100 µM
MALME-3M melanoma
  TGI: 37.8 µM
SNB-75 CNS
  TGI: > 100 µM
HCT-116 colon
  TGI: > 100 µM
RXF 393 renal
  TGI: > 100 µM
A498 renal
  TGI: > 100 µM
HT29 colon
  TGI: > 100 µM
SF-295 CNS
  TGI: > 100 µM
DU-145 prostate
  TGI: > 100 µM
SNB-19 CNS
  TGI: > 100 µM
OVCAR-8 ovarian
  TGI: > 100 µM
MDA-MB-231 breast
  TGI: > 100 µM
NCI-H522 lung
  TGI: 10.6 µM
OVCAR-3 ovarian
  TGI: > 100 µM
IGROV1 ovarian
  TGI: 66.8 µM
SW-620 colon
  TGI: > 100 µM
OVCAR-5 ovarian
  TGI: > 100 µM
A549 NSCLC
  TGI: 36.4 µM
MOLT-4 leukemia
  TGI: > 100 µM
HS 578T breast
  TGI: 90.1 µM
SF-268 CNS
  TGI: > 100 µM
NCI-H226 lung
  TGI: > 100 µM
CCRF-CEM leukemia
  TGI: > 100 µM
SF-539 CNS
  TGI: > 100 µM
UACC-257 melanoma
  TGI: > 100 µM
MCF7 breast
  TGI: > 100 µM
HCC-2998 colon
  TGI: 44.7 µM
BT-549 breast
  TGI: > 100 µM
SK-MEL-5 melanoma
  TGI: > 100 µM
EKVX NSCLC
  TGI: 8.15 µM
SN12C renal
  TGI: > 100 µM
M14 melanoma
  TGI: > 100 µM
PC-3 prostate
  TGI: > 100 µM
U251 CNS
  TGI: > 100 µM
HOP-62 NSCLC
  TGI: > 100 µM
UO-31 renal
  TGI: 33.7 µM
LOX IMVI melanoma
  TGI: 36.5 µM
K-562 leukemia
  TGI: > 100 µM
786-0 renal
  TGI: > 100 µM
NCI-H460 lung
  TGI: > 100 µM
NCI/ADR-RES ovarian
  TGI: > 100 µM
HCT-15 colon
  TGI: 60.8 µM
SK-MEL-2 melanoma
  TGI: > 100 µM
COLO 205 colon
  TGI: > 100 µM
MDA-MB-435
  TGI: > 100 µM
NCI-H23 lung
  TGI: > 100 µM
HOP-92 NSCLC
  TGI: 6.87 µM
ACHN renal
  TGI: 32.1 µM
MDA-N
  TGI: > 100 µM
RPMI-8226 leukemia
  TGI: > 100 µM
UACC-62 melanoma
  TGI: > 100 µM
SK-OV-3 ovarian
  TGI: > 100 µM
